Active and inactive are the calls of the source. The rule behind the calls is not given here.

One data set has as its system Lactuca sativa. As to the kind of experiment: Phytotoxicity against Lactuca sativa var. Carrascoy (lettuce) assessed as inhibition of radicle length at 50 ug/cm2 after 24 to 144 hr. The data set is classed as functional.
Conditions: not given
Regarding `C=C1C/C(=C/C)C(=O)O[C@@H]2CCN3CC=C(COC(=O)[C@]1(C)O)[C@H]23` [SENECIPHYLLINE], the inhibition (usually how much of the control response was suppressed) at 50 µg/cm2 is less than 50%.
Consider `C/C=C1\C[C@@H](C)[C@@](C)(O)C(=O)OC/C2=C/CN(C)CC[C@@H](OC1=O)C2=O` [SENKIRKINE], for which the inhibition at 50 µg/cm2 is less than 50%.
Same read-out and setting: as for `C=C1C/C(=C\C)C(=O)O[C@@H]2CCN3CC=C(COC(=O)[C@]1(C)O)[C@H]23` [SPARTIOIDINE], the figure is less than 50%.

Another data set relates to Rhopalosiphum padi. As to the kind of experiment: Antifeedant activity against Rhopalosiphum padi adults fed on compound treated Hordeum vulgare annuum leaves assessed as feeding level at 50 ug/cm2 (reference value: 47 to 64%). The data set is classed as functional.
Conditions: not given
`C/C=C1\C[C@@H](C)[C@](O)(CO)C(=O)OCC2=CCN3CC[C@@H](OC1=O)[C@@H]23` (stereo in doubt; 7) [RETRORSINE]: the Activity was found to be 46%.
`C/C=C(/C)C(=O)O[C@@H]1CC[N+]2([O-])CC=C(COC(=O)[C@@](O)([C@H](C)O)C(C)(C)O)[C@H]12` (stereo not given in full) [ECHIMIDINE N-OXIDE]: the Activity is reported as 43%.
Take `C/C=C(/C)C(=O)O[C@@H]1CCN2CC=C(COC(=O)[C@@](O)([C@H](C)O)C(C)(C)O)[C@H]12` [ECHIMIDINE]: the Activity was 36%.
Still for that read-out and setting: as for `C=C1C/C(=C/C)C(=O)O[C@@H]2CCN3CC=C(COC(=O)[C@]1(C)O)[C@H]23` [SENECIPHYLLINE], the figure is 42%; as for `C/C=C1\C[C@@H](C)[C@@](C)(O)C(=O)OC/C2=C/CN(C)CC[C@@H](OC1=O)C2=O` [SENKIRKINE], 53%.
Still for that read-out and setting: as for `C=C1C/C(=C\C)C(=O)O[C@@H]2CCN3CC=C(COC(=O)[C@]1(C)O)[C@H]23` [SPARTIOIDINE], the figure is 42%.

In the next data set the test system is Spodoptera littoralis. As to the kind of experiment: Antifeedant activity against Spodoptera littoralis L6 larvae assessed as biomass gain orally dosed with 40 ug after 72 hr relative to untreated control. The class given is functional.
Conditions: not given
Consider `C/C=C1\C[C@@H](C)[C@](O)(CO)C(=O)OCC2=CCN3CC[C@@H](OC1=O)[C@@H]23` (stereo in doubt; 7) [RETRORSINE], for which the Activity was 90%.
On to `C/C=C(/C)C(=O)O[C@@H]1CC[N+]2([O-])CC=C(COC(=O)[C@@](O)([C@H](C)O)C(C)(C)O)[C@H]12` (stereo not given in full) [ECHIMIDINE N-OXIDE], for which the Activity was 102%.
Consider `C/C=C(/C)C(=O)O[C@@H]1CCN2CC=C(COC(=O)[C@@](O)([C@H](C)O)C(C)(C)O)[C@H]12` [ECHIMIDINE], for which the Activity amounted to 118%.
Still for that read-out and setting: as for `C=C1C/C(=C/C)C(=O)O[C@@H]2CCN3CC=C(COC(=O)[C@]1(C)O)[C@H]23` [SENECIPHYLLINE], the figure is 87%; as for `C/C=C1\C[C@@H](C)[C@@](C)(O)C(=O)OC/C2=C/CN(C)CC[C@@H](OC1=O)C2=O` [SENKIRKINE], 116%.
The same measure, in the same setting: next, `C=C1C/C(=C\C)C(=O)O[C@@H]2CCN3CC=C(COC(=O)[C@]1(C)O)[C@H]23` [SPARTIOIDINE]: 90%.

For another data set, the system named is Lactuca sativa. Description: Phytotoxicity against Lactuca sativa var. Carrascoy (lettuce) assessed as inhibition of seed germination at 50 ug/cm2 after 96 hr. The class given is functional, organism-based.
Conditions: not given
With `C/C=C1\C[C@@H](C)[C@@](C)(O)C(=O)OC/C2=C/CN(C)CC[C@@H](OC1=O)C2=O` [SENKIRKINE], the inhibition result is “Active”.

The subject of another data set is Spodoptera littoralis. As to the kind of experiment: Antifeedant activity against Spodoptera littoralis L6 larvae assessed as food consumption level orally dosed with 40 ug after 72 hr relative to untreated control. The data set is classed as functional.
Conditions: not given
Take `C/C=C1\C[C@@H](C)[C@](O)(CO)C(=O)OCC2=CCN3CC[C@@H](OC1=O)[C@@H]23` (stereo in doubt; 7) [RETRORSINE]: the Activity is recorded as 88%.
On to `C/C=C(/C)C(=O)O[C@@H]1CC[N+]2([O-])CC=C(COC(=O)[C@@](O)([C@H](C)O)C(C)(C)O)[C@H]12` (stereo not given in full) [ECHIMIDINE N-OXIDE], for which the Activity is listed as 113%.
The same measure, in the same setting: as for `C/C=C(/C)C(=O)O[C@@H]1CCN2CC=C(COC(=O)[C@@](O)([C@H](C)O)C(C)(C)O)[C@H]12` [ECHIMIDINE], the figure is 165%; as for `C=C1C/C(=C/C)C(=O)O[C@@H]2CCN3CC=C(COC(=O)[C@]1(C)O)[C@H]23` [SENECIPHYLLINE], 82%.
On the same count and under the same terms, as for `C/C=C1\C[C@@H](C)[C@@](C)(O)C(=O)OC/C2=C/CN(C)CC[C@@H](OC1=O)C2=O` [SENKIRKINE], the figure is 105%.
Same read-out and setting: as for `C=C1C/C(=C\C)C(=O)O[C@@H]2CCN3CC=C(COC(=O)[C@]1(C)O)[C@H]23` [SPARTIOIDINE], the figure is 97%.

A further data set deals with Myzus persicae. As to the kind of experiment: Antifeedant activity against Myzus persicae (green peach aphid) adults fed on compound treated […] annuum leaves assessed as feeding level at 50 ug/cm2 (reference value: 43 to 70%). The class given is functional.
Conditions: not given
Take `C/C=C1\C[C@@H](C)[C@](O)(CO)C(=O)OCC2=CCN3CC[C@@H](OC1=O)[C@@H]23` (stereo in doubt; 7) [RETRORSINE]: the Activity worked out at 44%.
For `C/C=C(/C)C(=O)O[C@@H]1CC[N+]2([O-])CC=C(COC(=O)[C@@](O)([C@H](C)O)C(C)(C)O)[C@H]12` (stereo not given in full) [ECHIMIDINE N-OXIDE], the Activity is listed as 40%.
On the same count and under the same terms, next, `C/C=C(/C)C(=O)O[C@@H]1CCN2CC=C(COC(=O)[C@@](O)([C@H](C)O)C(C)(C)O)[C@H]12` [ECHIMIDINE]: 40%.
Same read-out and setting: as for `C=C1C/C(=C/C)C(=O)O[C@@H]2CCN3CC=C(COC(=O)[C@]1(C)O)[C@H]23` [SENECIPHYLLINE], the figure is 50%; as for `C/C=C1\C[C@@H](C)[C@@](C)(O)C(=O)OC/C2=C/CN(C)CC[C@@H](OC1=O)C2=O` [SENKIRKINE], 35%.
Still for that read-out and setting: next, `C=C1C/C(=C\C)C(=O)O[C@@H]2CCN3CC=C(COC(=O)[C@]1(C)O)[C@H]23` [SPARTIOIDINE]: 35%.

Tested on in another data set: not listed separately
Description: Toxicity against Cricetulus griseus CHO (Chinese hamster ovary) cell by MTT assay. The data set is classed as cell-based. As to conditions: CHO cells.
As to `C/C=C1/C[C@@H](C)[C@](O)(CO)C(=O)OCC2=CCN3CC[C@@H](OC1=O)[C@@H]23` (stereo in doubt; 7) [RETRORSINE], the EC50 is greater than 100 µg/mL.
In the case of `C=C1C/C(=C/C)C(=O)O[C@@H]2CCN3CC=C(COC(=O)[C@]1(C)O)[C@H]23` [SENECIPHYLLINE], the EC50 was greater than 100 µg/mL.
Still for that read-out and setting: as for `C=C1C/C(=C\C)C(=O)O[C@@H]2CCN3CC=C(COC(=O)[C@]1(C)O)[C@H]23` [SPARTIOIDINE], the figure is greater than 100 µg/mL.

Another data set concerns Lactuca sativa. Description: Phytotoxicity against Lactuca sativa var. Carrascoy (lettuce) assessed as inhibition of seed germination at 50 ug/cm2 after 24 hr. The class given is functional, organism-based.
Conditions: not given
For `C/C=C1\C[C@@H](C)[C@](O)(CO)C(=O)OCC2=CCN3CC[C@@H](OC1=O)[C@@H]23` (stereo in doubt; 7), the inhibition result is “Active”.
For `C/C=C1\C[C@@H](C)[C@](O)(CO)C(=O)OCC2=CCN3CC[C@@H](OC1=O)[C@@H]23` (stereo in doubt; 8), the inhibition entry was “Active”.
The same measure, in the same setting: next, `C/C=C1\C[C@@H](C)[C@@](C)(O)C(=O)OC/C2=C/CN(C)CC[C@@H](OC1=O)C2=O` [SENKIRKINE]: “Active”.

A further data set has as its system Lactuca sativa. As to the kind of experiment: Phytotoxicity against Lactuca sativa var. Carrascoy (lettuce) assessed as inhibition of seed germination at 50 ug/cm2 after 48 hr. The data set is classed as functional, organism-based.
Conditions: not given
`C/C=C1\C[C@@H](C)[C@@](C)(O)C(=O)OC/C2=C/CN(C)CC[C@@H](OC1=O)C2=O` [SENKIRKINE]: the inhibition entry is “Active”.

The test system of a further data set is Leptinotarsa decemlineata. As to the kind of experiment: Antifeedant activity against Leptinotarsa decemlineata adults fed on compound treated Capsicum annuum leaves assessed as inhibition of feeding. The data set is classed as functional, organism-based.
Conditions: not given
As for `C/C=C1\C[C@@H](C)[C@](O)(CO)C(=O)OCC2=CCN3CC[C@@H](OC1=O)[C@@H]23` (stereo in doubt; 7) [RETRORSINE], the EC50 is listed as greater than 50 microg/cm2.
On the same count and under the same terms, next, `C/C=C(/C)C(=O)O[C@@H]1CC[N+]2([O-])CC=C(COC(=O)[C@@](O)([C@H](C)O)C(C)(C)O)[C@H]12` (stereo not given in full) [ECHIMIDINE N-OXIDE]: greater than 50 microg/cm2; `C/C=C(/C)C(=O)O[C@@H]1CCN2CC=C(COC(=O)[C@@](O)([C@H](C)O)C(C)(C)O)[C@H]12` [ECHIMIDINE]: 1.4 microg/cm2.
With `C=C1C/C(=C/C)C(=O)O[C@@H]2CCN3CC=C(COC(=O)[C@]1(C)O)[C@H]23` [SENECIPHYLLINE], the EC50 is given as 1.7 microg/cm2.
On the same count and under the same terms, next, `C/C=C1\C[C@@H](C)[C@@](C)(O)C(=O)OC/C2=C/CN(C)CC[C@@H](OC1=O)C2=O` [SENKIRKINE]: greater than 50 microg/cm2.
Still for that read-out and setting: as for `C=C1C/C(=C\C)C(=O)O[C@@H]2CCN3CC=C(COC(=O)[C@]1(C)O)[C@H]23` [SPARTIOIDINE], the figure is 4.8 microg/cm2.

Tested on in another data set: not listed separately
Description: Toxicity against Spodoptera frugiperda (fall armyworm) Sf9 cells by MTT assay. The data set is classed as cell-based.
Conditions: not given
Compound `C=C1C/C(=C/C)C(=O)O[C@@H]2CCN3CC=C(COC(=O)[C@]1(C)O)[C@H]23` [SENECIPHYLLINE] gave an EC50 greater than 100 µg/mL.
The compound `C=C1C/C(=C\C)C(=O)O[C@@H]2CCN3CC=C(COC(=O)[C@]1(C)O)[C@H]23` [SPARTIOIDINE] registered an EC50 greater than 100 µg/mL.

For another data set, the system named is Spodoptera littoralis. As to the kind of experiment: Antifeedant activity against Spodoptera littoralis sixth-instar larvae fed on compound treated Solanum tuberosum leaves assessed as inhibition of feeding. The data set is classed as functional, organism-based.
Conditions: not given
For `C/C=C1\C[C@@H](C)[C@](O)(CO)C(=O)OCC2=CCN3CC[C@@H](OC1=O)[C@@H]23` (stereo in doubt; 7) [RETRORSINE], the EC50 was greater than 50 microg/cm2.
As to `C/C=C(/C)C(=O)O[C@@H]1CC[N+]2([O-])CC=C(COC(=O)[C@@](O)([C@H](C)O)C(C)(C)O)[C@H]12` (stereo not given in full) [ECHIMIDINE N-OXIDE], the EC50 is on record as greater than 50 microg/cm2.
The same measure, in the same setting: next, `C/C=C(/C)C(=O)O[C@@H]1CCN2CC=C(COC(=O)[C@@](O)([C@H](C)O)C(C)(C)O)[C@H]12` [ECHIMIDINE]: greater than 50 microg/cm2; `C=C1C/C(=C/C)C(=O)O[C@@H]2CCN3CC=C(COC(=O)[C@]1(C)O)[C@H]23` [SENECIPHYLLINE]: 50 microg/cm2.
The same measure, in the same setting: as for `C/C=C1\C[C@@H](C)[C@@](C)(O)C(=O)OC/C2=C/CN(C)CC[C@@H](OC1=O)C2=O` [SENKIRKINE], the figure is greater than 50 microg/cm2; as for `C=C1C/C(=C\C)C(=O)O[C@@H]2CCN3CC=C(COC(=O)[C@]1(C)O)[C@H]23` [SPARTIOIDINE], 0.2 microg/cm2.

Another data set deals with Lactuca sativa. As to the kind of experiment: Phytotoxicity against Lactuca sativa var. Carrascoy (lettuce) assessed as inhibition of seed germination at 50 ug/cm2 after 72 hr.
Conditions: not given
The data set is classed as functional, organism-based.
For `C/C=C1\C[C@@H](C)[C@@](C)(O)C(=O)OC/C2=C/CN(C)CC[C@@H](OC1=O)C2=O` [SENKIRKINE], the inhibition result was “Active”.
